Results on three compounds are retold here after patent US20080051419A1, “AMINE DERIVATIVES USEFUL AS ANTICANCER AGENTS” (PFIZER INC., priority 2006, published 2008).

In experiment [1] the target is T1, PKA, catalytic subunit, recombinant (Homo sapiens, UniProt P17612).
T1 construct: purchased Upstate 14-440
Description: PKA IMAP Kinase Assay. In kind it is biochemical. The following applies: for Selectivity Ratio (PKA/Akt): PKA IC50 divided by Akt IC50; for IC50: Table 6, selectivity study. The procedure:
The PKA Kinase assay is used to measure the selectivity of the compounds of formula I for PKA kinase as discussed below. The PKA activity of the compounds of formula I was determined using the PKA IMAP® Kinase Assay (G7096A).
Materials: • 1) Kinase Reaction Buffer (RB):—10 mM Tris-HCl, pH 7.5, 10 mM MgCl2, 0.1 mM EGTA, 0.01% Triton-X 100 (Sigma #X-100); 1 mM DTT (N.E. Biolabs #B7705S) added fresh • 2) ATP (Sigma #5394) 10 mM stock in H2O, −20° C. • 3) 20 μM working stock TAMRA Kemptide (TK. Molecular Devices #R7332): [N-Term]TMRS-Leu-Arg-Arg-Ala-Ser-Leu-Gly-OH[C-Term] • 4) PKA, catalytic subunit, recombinant (Upstate #14-440). 5 ug/25 ul lot 22361AU • 5) DMSO (Baker #9224-01) • 6) IMAP® Progressive Express Screening Kit for IPP (Molecular Devices #R8124) Includes IMAP® Progressive Beads and Binding Buffer • 7) 96-well ½ area plates, black polystyrene, Costar #3694 • 8) 96-well round bottom polypropylene plates, Costar #9667
NOTE: Protect all Tamra-Containing Reagents from Light.
• 1) Prepare the 1× Reaction Buffer (RB) by fresh addition of DTT to 1 mM • 2) For single point testing, make up compound dilution plate as follows: “96 well plates; Row Empty: empty; 84 cmpds” are added to the remaining wells at […]. • 3) For 150 determination: To column 2 of polypropylene plate add 100 ul 100% DMSO; to all other wells add 60 ul 100% DMSO. • 4) Pipet 2 ul 10 mM stock compound to column 2; mix well • 5) Serially dilute 1:3 across from column 2-11, transferring 30 ul to next well and mixing well. • 6) Leave column 12 for zero compound (control signal) • 7) For Single Point testing (10 uM final) add 1 ul 10 mM compound to 100 ul DMSO; mix; transfer 5 ul to 120 ul RB; mix; transfer 5 ul to Assay Plate • 8) For 150 determination: Make up compound RB dilution plate: 60 μl/well RB in 96-well polypropylene round bottom plate. • 9) Transfer compounds to assay plate as follows: Mix DMSO dilutions; transfer 15 μl to 60 μl RB; transfer 5 μl/well to assay plates (single points, triplicate plates), delivering carefully to the bottom of the well; repeat for each dilution up to 10 μM. • 10) To run PKA Reactions: Make up ATP/KT solution; 4 uM ATP, 200 nM KT ([…], 100 nM KTfinal) • 11) Pipet 10 μl KT/ATP to wells containing compound. • 12) Make up protein solution in RB and determine the protein concentration. • 13) Deliver 5 μl protein solution to all wells except A1-H1, delivering to the upper region of the side of the well; Add 5 μl RB to A1-H1 (these are the 0 protein background controls) • 14) Gently tap the plate to ensure all volumes get to the bottom. Cover with foil lid. • 15) Incubate RT on bench top 30 minutes. • 16) Add 60 μl IMAP® beads in IMAP® Progressive binding buffer (100% A) diluted 1:1000 • 17) Read on VICTOR™ plate reader (protocol LissieTAMRA2) with the following settings: CW lamp filter 544 nm; emission filter 615 nm. Some adjustments may be made to the plate reader protocol depending on the reader and available filters. • 18) Use XLDA to calculate IC50s.

The target in another experiment is T2, Akt1 (Homo sapiens, UniProt P31749, S473D).
T2 construct: The version of Akt used in these studies lacks the pleckstrin homology (PH) domain
T2 sequence (P31749 118-480 S473D limits assumed, species assumed): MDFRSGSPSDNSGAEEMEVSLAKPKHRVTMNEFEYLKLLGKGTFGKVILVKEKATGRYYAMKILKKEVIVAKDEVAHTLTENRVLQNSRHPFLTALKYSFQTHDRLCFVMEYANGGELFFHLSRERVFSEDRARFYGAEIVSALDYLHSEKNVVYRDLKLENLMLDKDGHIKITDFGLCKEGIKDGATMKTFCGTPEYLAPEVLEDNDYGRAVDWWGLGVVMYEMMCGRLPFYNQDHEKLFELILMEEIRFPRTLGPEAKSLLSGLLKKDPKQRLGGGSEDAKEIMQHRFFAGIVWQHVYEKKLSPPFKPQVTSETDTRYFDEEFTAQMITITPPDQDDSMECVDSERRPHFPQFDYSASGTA
As to the kind of experiment: Akt1 kinase assay, fluorescence polarization (IMAP). In kind it is biochemical. The following applies: Table 6, selectivity study; read-out: Akt Kinase Activity. The essentials: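 His-tagged Akt1 lacking the PH domain, Thr308-prephosphorylated, 1.5 ng per reaction, with 4 μM ATP and 40 nM TAMRA-Crosstide (solution concentrations) in Tris pH 7.5/MgCl2/DTT buffer. Incubated 30 min at ambient temperature; IMAP fluorescence polarization read (544/615 nm). IC50 after subtraction of no-enzyme background.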
Background: Fluorescence polarisation rises when a labelled molecule tumbles more slowly, as on binding a larger partner.

Each structure is given as a SMILES string.

Consider `Cc1c[nH]c2ncnc(N3CCC(N)(CNc4ccccc4)C3)c12` (stereo not drawn) [Example 199, 3-((phenylamino)methyl)-1-(5-methyl-7H-pyrrolo[2,3-d]pyrimidin-4-yl)pyrrolidin-3-amine], for which, in experiment [1], the “Selectivity Ratio (PKA/Akt)” value is 15.93 and the IC50 amounted to 2580 nM. The IC50 on Akt1 turned out to be 162 nM.
As for `Cc1c[nH]c2ncnc(N3CCC(N)(CNc4ccc(Cl)cc4)C3)c12` (stereo not drawn) [Example 200, 3-(4-chloro(phenylamino)methyl)-1-(5-methyl-7H-pyrrolo[2,3-d]pyrimidin-4-yl)pyrrolidin-3-amine], in experiment [1], the “Selectivity Ratio (PKA/Akt)” value turned out to be 2.36 and the IC50 is 279 nM. In addition, the IC50 at Akt1 came out at 118 nM.
As for `Cc1c[nH]c2ncnc(N3CCC(N)(CNc4ccc(Cl)cc4)CC3)c12` [BB, 4-(4-chloro(phenylamino)methyl)-1-(5-methyl-7H-pyrrolo[2,3-d]pyrimidin-4-yl)piperidin-4-amine, reference compound], in experiment [1], the “Selectivity Ratio (PKA/Akt)” value came to 0.57 and the IC50 was 26.3 nM. Further, at Akt1, the IC50 was 45.9 nM.
